Data on four molecules can be found in patent US7083511B1, “Methods” (The University of Dundee, priority 1998, dated 2006).

Experiment [1] relates to protein phosphatase 2A (PP2A). Format: biochemical.
Experiment [2] concerns the target T1, SGK (Homo sapiens, UniProt O00141).
T1 construct: PEBG-SGK expressing full length SGK; made in house; host or cells: 293 cells
Description: Phosphorylation and activation of SGK by PDK1 in vitro. Format: biochemical. The conditions noted are these: 1 μM PtdIns(3,4,5)P3, with or without PS/PC lipid vesicles. As to the method: (A) GST-SGK (0.3 μg) was phosphorylated using GST-PDK1 (0.1 μg) and [γ-^32P] ATP (500 cpm/pmol) as described under Methods. Where indicated (+), 1 μM PtdIns(3,4,5)P3 in lipid vesicles containing phosphatidylserine (100 μM) and phosphatidylcholine (100 μM) (PS/PC) were also included. The reactions were stopped by the addition of SDS to 2% and, after heating for 5 min at 95° C., the samples were subjected to electrophoresis on 10% SDS/polyacrylamide gels, stained with Coomasssie blue and then autoradiographed. The positions of the molecular mass markers are also indicated (B) Same as (A), except that unlabelled ATP was used instead of [γ-^32P] ATP. After incubation for 10 min at 30° C., 10 μl aliquots were assayed for SGK activity using Crosstide as substrate. The results are shown ±SD for three separate experiments.
Phosphorylation and assay of SGK. Phosphorylation was carried out at 30° C. in 50 μl incubations containing 50 mM Tris/HCl pH 7.5, 0.1 mM EGTA, 0.1% (v/v) 2-mercaptoethanol, 2.5 μM PKI, 1 μM microcystin-LR, 10 mM magnesium chloride and 100 μM ATP. Where indicated lipid vesicles containing phosphatidylcholine (100 μM), phosphatidyl serine (100 μM) and PtdIns(3,4,5)P3 (1 μM) were also included. SGK activity was assayed exactly as described for PKB [6] using the peptide […] (SEQ. ID. NO:30) (“Crosstide”) at 30 μM as substrate. […]

Experiment [3] deals with T2, SGK2 (Homo sapiens, UniProt Q9HBY8).
T2 construct: pEBG-SGK2α expressing full length of SGK2α; made in house; host or cells: 293 cells
T2 sequence (Q9HBY8 1-367): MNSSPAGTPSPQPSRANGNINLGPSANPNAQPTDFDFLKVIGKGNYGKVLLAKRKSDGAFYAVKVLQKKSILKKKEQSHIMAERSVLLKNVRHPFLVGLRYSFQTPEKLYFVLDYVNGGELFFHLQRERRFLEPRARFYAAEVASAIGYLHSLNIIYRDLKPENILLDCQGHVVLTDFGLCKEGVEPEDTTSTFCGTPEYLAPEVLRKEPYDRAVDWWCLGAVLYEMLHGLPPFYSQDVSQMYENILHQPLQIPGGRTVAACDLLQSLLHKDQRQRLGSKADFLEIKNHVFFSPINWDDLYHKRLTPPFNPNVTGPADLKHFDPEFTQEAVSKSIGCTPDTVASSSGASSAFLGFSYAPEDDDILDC
Description: Activation of SGK2 by PDK1 in vitro. Format: biochemical. The conditions noted are these: 10 μM in PS/PC lipid vesicles. As to the method:
(§1) Each GST-SGK isoform (0.4 μg) was incubated for 20 min at 30° C. with protein phosphatase 2A (PP2A, 30 mU/ml) in a 10 μl incubation containing 20 mM Tris/HCl, pH 7.5, 0.1% (v/v) 2-mercaptoethanol, 0.1 mM EGTA and 1 mg/ml bovine serum albumin. After addition of microcystin-LR to 1 μM to inactivate PP2A, SGK (0.4 μg) was phosphorylated for 30 min at 30° C. in a mixture (20 μl) containing 50 mM Tris/HCl, pH 7.5, 10 mM MgCl2, 0.1% (v/v) 2-mercaptoethanol, 0.1 mM EGTA, GST-PDK1 (0.03–300 ng) diluted in Buffer C and 100 μM unlabelled ATP. SGK assays were initiated by the addition of 30 μl of a mixture containing 50 mM Tris/HCl, pH 7.5, 10 mM MgCl2, 0.1% (v/v) 2-mercaptoethanol, 0.1 mM EGTA, 100 μM [γ-^32P] ATP (500 c.p.m/pmol), 50 μM of the peptide substrate Crosstide ([…]) (SEQ. ID. NO:30) and 4.2 μM of residues 5–24 of the specific protein inhibitor of adenosine 3′5′ cyclic monophosphate-dependent protein kinase. After 10 min at 30° C., the reactions were terminated by spotting aliquots on to P81 phosphocellulose paper, followed by immediate immersion in 75 mM phosphoric acid. The papers were washed, dried and analysed. One unit (U) of SGK was that amount which phosphorylated 1 nmole of Crosstide in one min.

The target in experiment [4] is T3, SGK3 (Homo sapiens, UniProt Q96BR1).
T3 construct: made in house; host or cells: 293 cells
T3 sequence (Q96BR1 68-496 limits assumed): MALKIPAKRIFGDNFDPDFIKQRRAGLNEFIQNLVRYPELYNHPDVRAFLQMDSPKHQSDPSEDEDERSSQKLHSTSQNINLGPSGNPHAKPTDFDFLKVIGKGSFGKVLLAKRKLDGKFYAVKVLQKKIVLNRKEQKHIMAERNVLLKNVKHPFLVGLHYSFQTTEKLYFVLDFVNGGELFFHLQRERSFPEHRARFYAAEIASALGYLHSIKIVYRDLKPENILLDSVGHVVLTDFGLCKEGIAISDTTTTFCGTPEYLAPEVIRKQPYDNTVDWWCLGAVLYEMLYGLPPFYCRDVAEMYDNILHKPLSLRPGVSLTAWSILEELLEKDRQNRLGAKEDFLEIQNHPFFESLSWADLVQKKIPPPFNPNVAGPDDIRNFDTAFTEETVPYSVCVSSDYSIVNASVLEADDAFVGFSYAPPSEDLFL
Description: Activation of SGK3 by PDK1 in vitro. The format is biochemical. The conditions noted are these: 10 μM in PS/PC lipid vesicles. The procedure: as §1

The subject of experiment [5] is SGK1. The experiment in a line: Activation of GST-SGK1 in transfected 293 cells (Example 5). Format: cell-based, human. As to the method:
(§2) Cells were transiently transfected with DNA constructs expressing (A) GST-SGK1, (B), GST-SGK2α and (C) GST-SGK3. At 24 h after transfection, the cells were deprived of serum for 16 h, then exposed to 50 ng/ml IGF-1 (10 min), 400 ng/ml phorbol myristate acetate (PMA) (30 min), 10% serum (30 min), 1 μM dexamethasone (Dex, 60 min), 2 mM H2O2 (25 min), 5 μg/ml anisomycin (AN, 30 min), 0.4 M sorbitol (30 min), hypotonic stress (1 ml of water added to 3 ml of DMEM, 30 min), UV radiation (30 min after exposure to 200 J/m2) or left untreated (control). After each treatment, the cells were lysed in ice-cold lysis buffer and SGK activity in 100 μg of cell lysate protein was measured.
(§3) FIG. 20. […] Cells were transiently transfected with DNA constructs expressing (A) GST-SGK1, (B) GST-SGK2α and (C) GST-SGK3. At 24 h after transfection, the cells were deprived of serum for 16 h. The transfectants were then pretreated for 10 min with 100 nM wortmannin or for 1 h with 100 μM LY294002 and then stimulated for 25 min with 2 mM H2O2.
(§4) Expression of SGK isoforms in 293 cells. […] After each treatment, the cells were lysed and the activity of SGK isoforms was measured after affinity purification of the GST-fusion proteins on glutathione Sepharose, as described previously for SGK1 [18].

Experiment [6] concerns SGK2α. Description: Activation of GST-SGK2α in transfected 293 cells (Example 5). The format is cell-based, human. As to the method: as §2, §3, §4
For experiment [7], the system named is SGK3. Description: Activation of GST-SGK3 in transfected 293 cells (Example 5). The format is cell-based, human. The procedure: as §2, §3, §4
Setting [8] is: IGF-1 50 ng/ml 10 min, H2O2 2 mM 25 min.
[9] abbreviates: 10% serum 30 min, 0.4 M sorbitol 30 min.

Starred links: 1 amine or outer side, 2 acyl side, 3 side chain; linkers in the order of their positions; H or OH if unused. Positions of bridges follow the written chain, without caps; N, C: chain ends. Non-standard residues stand in square brackets, D forms with d. Residues, ends and D or L forms follow the SMILES beside them. Adda = CO[C@@H](Cc1ccccc1)[C@@H](C)/C=C(C)/C=C/[C@H](N[*:1])[C@H](C)C(=O)[*:2]; dAsp(3S-Me) = C[C@H](C(=O)[*:3])[C@@H](N[*:1])C(=O)[*:2]; d(γGlu) = O=C(O)[C@@H](CCC(=O)[*:2])N[*:1]; NMeDha = C=C(NC)C(=O)O

T1 sequence (O00141 whole entry, looked up): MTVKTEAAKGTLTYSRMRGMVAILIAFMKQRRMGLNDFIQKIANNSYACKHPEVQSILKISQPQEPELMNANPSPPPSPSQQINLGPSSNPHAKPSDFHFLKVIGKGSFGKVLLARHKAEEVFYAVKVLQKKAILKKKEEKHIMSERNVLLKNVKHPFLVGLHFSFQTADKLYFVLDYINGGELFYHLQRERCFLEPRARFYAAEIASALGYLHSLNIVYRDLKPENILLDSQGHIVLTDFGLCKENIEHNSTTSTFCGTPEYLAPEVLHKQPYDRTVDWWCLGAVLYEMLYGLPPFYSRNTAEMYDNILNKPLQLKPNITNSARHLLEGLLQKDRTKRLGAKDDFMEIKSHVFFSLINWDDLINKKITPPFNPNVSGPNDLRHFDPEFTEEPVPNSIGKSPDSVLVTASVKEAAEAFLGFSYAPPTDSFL

As for `C=C1C(=O)N[C@H](C)C(=O)N[C@@H](CC(C)C)C(=O)N[C@@H](C(=O)O)[C@H](C)C(=O)N[C@@H](CCCNC(=N)N)C(=O)N[C@@H](/C=C/C(C)=C/[C@H](C)[C@H](Cc2ccccc2)OC)[C@H](C)C(=O)N[C@@H](C(=O)O)CCC(=O)N1C` [microcystin, microcystin-LR] (R[Adda][d(γGlu)][NMeDha][dA]L[dAsp(3S-Me)]-OH; lactam N-7), in experiment [1], the “Effect on inactivation of GST-SGK by PP2A” value is given as “prevented”.

As to PtdIns(3,4,5)P3, the “Effect on phosphorylation and activation of SGK by PDK1” value in experiment [2] is recorded as “unaffected”. In addition, in experiment [3], the “Effect on activation of SGK2 by PDK1” value is “slightly inhibited”. In addition, in experiment [4], the “Effect on activation of SGK3 by PDK1” value is “slightly inhibited”.

Regarding `OO` [hydrogen peroxide], the “Activation of SGK1 by the stimulus” value in experiment [5] (setting [8]) is on record as “five fold”. Further, in experiment [6] (setting [8]), the “Activation of SGK2α by the stimulus” value amounted to 5 fold. In addition, the “Activation of SGK3 by the stimulus” value in experiment [7] (setting [8]) was 5 fold.

In the case of `OC[C@@H](O)[C@@H](O)[C@H](O)[C@@H](O)CO` [sorbitol], the “Effect of the stimulus on SGK1 activity (in words)” value in experiment [5] (setting [9]) is listed as “potently inhibited”. In experiment [6] (setting [9]), the “Effect of the stimulus on SGK2α activity (in words)” value was “had no effect”. Moreover, in experiment [7] (setting [9]), the “Effect of the stimulus on SGK3 activity (in words)” value was “had no effect”.
